Laboratory results from patent US20220281848A1, “PYRAZOLE-SUBSTITUTED PYRROLIDINONES AS HERBICIDES” (FMC Corporation, priority 2019, published 2022).

System: plants
Assay: Test D pre-emergence, other plants of Tables D1 and D3
Format: in vivo
Details: for damage to plant (100=total damage to plant; 0=no damage to plant), ABUTH / damage to plant (100=total damage to plant; 0=no damage to plant), AMARE / damage to plant (100=total damage to plant; 0=no damage to plant), BIDPI / damage to plant (100=total damage to plant; 0=no damage to plant), BRAPL / damage to plant (100=total damage to plant; 0=no damage to plant), CYPES / damage to plant (100=total damage to plant; 0=no damage to plant), DIGSA / damage to plant (100=total damage to plant; 0=no damage to plant), ECHCG / damage to plant (100=total damage to plant; 0=no damage to plant), ELEIN / damage to plant (100=total damage to plant; 0=no damage to plant), EPHHL / damage to plant (100=total damage to plant; 0=no damage to plant), GLXMA / damage to plant (100=total damage to plant; 0=no damage to plant), IPOHE / damage to plant (100=total damage to plant; 0=no damage to plant), ORYSA / damage to plant (100=total damage to plant; 0=no damage to plant), PANMI / damage to plant (100=total damage to plant; 0=no damage to plant), SETFA / damage to plant (100=total damage to plant; 0=no damage to plant), SORVU: preemergent, 20 DAA; for damage to plant, ALOMY / damage to plant, AVEFA / damage to plant, BEAVA / damage to plant, BROTE / damage to plant, BRSNN / damage to plant, CHEAL / damage to plant, GALAP / damage to plant, HORVW / damage to plant, KCHSC / damage to plant, LOLPE / damage to plant, POAAN / damage to plant, POLCO / damage to plant, SINAR / damage to plant, STEME / damage to plant, VERPE: pre-emergence, 100=total damage, 0=no damage
Summary of the method: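 Damage was rated visually from 0 (none) to 100 (total), at 20 DAA for pre-emergence and 15 d for post-emergence. Plants grew from safener-treated seed in a glasshouse at 24/18° C. or 20/16° C. day/night, 65% humidity, watered twice daily.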

## CN1CC(c2cc(C(F)(F)F)n(C)n2)C(C(=O)Nc2ccc(F)cc2F)C1=O (racemic) [Compound 6]
Rate 15
  damage to plant (100=total damage to plant; 0=no damage to plant), ABUTH: 0
  damage to plant (100=total damage to plant; 0=no damage to plant), AMARE: 0
  damage to plant (100=total damage to plant; 0=no damage to plant), BIDPI: 0
  damage to plant (100=total damage to plant; 0=no damage to plant), BRAPL: 0
  damage to plant (100=total damage to plant; 0=no damage to plant), CYPES: 0
  damage to plant (100=total damage to plant; 0=no damage to plant), DIGSA: 0
  damage to plant (100=total damage to plant; 0=no damage to plant), ECHCG: 0
  damage to plant (100=total damage to plant; 0=no damage to plant), ELEIN: 0
  damage to plant (100=total damage to plant; 0=no damage to plant), EPHHL: 0
  damage to plant (100=total damage to plant; 0=no damage to plant), GLXMA: 0
  damage to plant (100=total damage to plant; 0=no damage to plant), IPOHE: 0
  damage to plant (100=total damage to plant; 0=no damage to plant), ORYSA: 0
  damage to plant (100=total damage to plant; 0=no damage to plant), PANMI: 0
  damage to plant (100=total damage to plant; 0=no damage to plant), SETFA: 0
  damage to plant (100=total damage to plant; 0=no damage to plant), SORVU: 0
Rate 30
  damage to plant (100=total damage to plant; 0=no damage to plant), ABUTH: 0
  damage to plant (100=total damage to plant; 0=no damage to plant), AMARE: 0
  damage to plant (100=total damage to plant; 0=no damage to plant), BIDPI: 0
  damage to plant (100=total damage to plant; 0=no damage to plant), BRAPL: 50
  damage to plant (100=total damage to plant; 0=no damage to plant), CYPES: 0
  damage to plant (100=total damage to plant; 0=no damage to plant), DIGSA: 30
  damage to plant (100=total damage to plant; 0=no damage to plant), ECHCG: 20
  damage to plant (100=total damage to plant; 0=no damage to plant), ELEIN: 0
  damage to plant (100=total damage to plant; 0=no damage to plant), EPHHL: 0
  damage to plant (100=total damage to plant; 0=no damage to plant), GLXMA: 0
  damage to plant (100=total damage to plant; 0=no damage to plant), IPOHE: 0
  damage to plant (100=total damage to plant; 0=no damage to plant), ORYSA: 0
  damage to plant (100=total damage to plant; 0=no damage to plant), PANMI: 0
  damage to plant (100=total damage to plant; 0=no damage to plant), SETFA: 0
  damage to plant (100=total damage to plant; 0=no damage to plant), SORVU: 0
Rate 60
  damage to plant (100=total damage to plant; 0=no damage to plant), ABUTH: 0
  damage to plant (100=total damage to plant; 0=no damage to plant), AMARE: 0
  damage to plant (100=total damage to plant; 0=no damage to plant), BIDPI: 0
  damage to plant (100=total damage to plant; 0=no damage to plant), BRAPL: 60
  damage to plant (100=total damage to plant; 0=no damage to plant), CYPES: 0
  damage to plant (100=total damage to plant; 0=no damage to plant), DIGSA: 90
  damage to plant (100=total damage to plant; 0=no damage to plant), ECHCG: 20
  damage to plant (100=total damage to plant; 0=no damage to plant), ELEIN: 0
  damage to plant (100=total damage to plant; 0=no damage to plant), EPHHL: 0
  damage to plant (100=total damage to plant; 0=no damage to plant), GLXMA: 0
  damage to plant (100=total damage to plant; 0=no damage to plant), IPOHE: 0
  damage to plant (100=total damage to plant; 0=no damage to plant), ORYSA: 0
  damage to plant (100=total damage to plant; 0=no damage to plant), PANMI: 0
  damage to plant (100=total damage to plant; 0=no damage to plant), SETFA: 10
  damage to plant (100=total damage to plant; 0=no damage to plant), SORVU: 0
Rate 130
  damage to plant (100=total damage to plant; 0=no damage to plant), ABUTH: 0
  damage to plant (100=total damage to plant; 0=no damage to plant), AMARE: 0
  damage to plant (100=total damage to plant; 0=no damage to plant), BIDPI: 0
  damage to plant (100=total damage to plant; 0=no damage to plant), BRAPL: 80
  damage to plant (100=total damage to plant; 0=no damage to plant), CYPES: 0
  damage to plant (100=total damage to plant; 0=no damage to plant), DIGSA: 90
  damage to plant (100=total damage to plant; 0=no damage to plant), ECHCG: 80
  damage to plant (100=total damage to plant; 0=no damage to plant), ELEIN: 0
  damage to plant (100=total damage to plant; 0=no damage to plant), EPHHL: 0
  damage to plant (100=total damage to plant; 0=no damage to plant), GLXMA: 0
  damage to plant (100=total damage to plant; 0=no damage to plant), IPOHE: 0
  damage to plant (100=total damage to plant; 0=no damage to plant), ORYSA: 0
  damage to plant (100=total damage to plant; 0=no damage to plant), PANMI: 0
  damage to plant (100=total damage to plant; 0=no damage to plant), SETFA: 80
  damage to plant (100=total damage to plant; 0=no damage to plant), SORVU: 0
Rate 250
  damage to plant (100=total damage to plant; 0=no damage to plant), ABUTH: 0
  damage to plant (100=total damage to plant; 0=no damage to plant), AMARE: 0
  damage to plant (100=total damage to plant; 0=no damage to plant), BIDPI: 0
  damage to plant (100=total damage to plant; 0=no damage to plant), BRAPL: 80
  damage to plant (100=total damage to plant; 0=no damage to plant), CYPES: 10
  damage to plant (100=total damage to plant; 0=no damage to plant), DIGSA: 90
  damage to plant (100=total damage to plant; 0=no damage to plant), ECHCG: 90
  damage to plant (100=total damage to plant; 0=no damage to plant), ELEIN: 0
  damage to plant (100=total damage to plant; 0=no damage to plant), EPHHL: 0
  damage to plant (100=total damage to plant; 0=no damage to plant), GLXMA: 0
  damage to plant (100=total damage to plant; 0=no damage to plant), IPOHE: 0
  damage to plant (100=total damage to plant; 0=no damage to plant), ORYSA: 0
  damage to plant (100=total damage to plant; 0=no damage to plant), PANMI: 0
  damage to plant (100=total damage to plant; 0=no damage to plant), SETFA: 90
  damage to plant (100=total damage to plant; 0=no damage to plant), SORVU: 0
Rate 500
  damage to plant (100=total damage to plant; 0=no damage to plant), ABUTH: 0
  damage to plant (100=total damage to plant; 0=no damage to plant), AMARE: 0
  damage to plant (100=total damage to plant; 0=no damage to plant), BIDPI: 0
  damage to plant (100=total damage to plant; 0=no damage to plant), BRAPL: 90
  damage to plant (100=total damage to plant; 0=no damage to plant), CYPES: 80
  damage to plant (100=total damage to plant; 0=no damage to plant), DIGSA: 100
  damage to plant (100=total damage to plant; 0=no damage to plant), ECHCG: 100
  damage to plant (100=total damage to plant; 0=no damage to plant), ELEIN: 0
  damage to plant (100=total damage to plant; 0=no damage to plant), EPHHL: 0
  damage to plant (100=total damage to plant; 0=no damage to plant), GLXMA: 0
  damage to plant (100=total damage to plant; 0=no damage to plant), IPOHE: 0
  damage to plant (100=total damage to plant; 0=no damage to plant), ORYSA: 0
  damage to plant (100=total damage to plant; 0=no damage to plant), PANMI: 0
  damage to plant (100=total damage to plant; 0=no damage to plant), SETFA: 90
  damage to plant (100=total damage to plant; 0=no damage to plant), SORVU: 0
Rate 15, 20 DAA
  damage to plant, ALOMY: 0
  damage to plant, AVEFA: 0
  damage to plant, BEAVA: 0
  damage to plant, BROTE: 0
  damage to plant, BRSNN: 0
  damage to plant, CHEAL: 0
  damage to plant, GALAP: 0
  damage to plant, HORVW: 0
  damage to plant, KCHSC: 0
  damage to plant, LOLPE: 0
  damage to plant, POAAN: 0
  damage to plant, POLCO: 0
  damage to plant, SINAR: 0
  damage to plant, STEME: 0
  damage to plant, VERPE: 0
Rate 30, 20 DAA
  damage to plant, ALOMY: 0
  damage to plant, AVEFA: 0
  damage to plant, BEAVA: 0
  damage to plant, BROTE: 0
  damage to plant, BRSNN: 0
  damage to plant, CHEAL: 0
  damage to plant, GALAP: 0
  damage to plant, HORVW: 0
  damage to plant, KCHSC: 0
  damage to plant, LOLPE: 0
  damage to plant, POAAN: 0
  damage to plant, POLCO: 0
  damage to plant, SINAR: 0
  damage to plant, STEME: 0
  damage to plant, VERPE: 0
Rate 60, 20 DAA
  damage to plant, ALOMY: 0
  damage to plant, AVEFA: 0
  damage to plant, BEAVA: 0
  damage to plant, BROTE: 0
  damage to plant, BRSNN: 0
  damage to plant, CHEAL: 0
  damage to plant, GALAP: 0
  damage to plant, HORVW: 0
  damage to plant, KCHSC: 0
  damage to plant, LOLPE: 0
  damage to plant, POAAN: 0
  damage to plant, POLCO: 0
  damage to plant, SINAR: 0
  damage to plant, STEME: 0
  damage to plant, VERPE: 0
Rate 130, 20 DAA
  damage to plant, ALOMY: 0
  damage to plant, AVEFA: 0
  damage to plant, BEAVA: 0
  damage to plant, BROTE: 0
  damage to plant, BRSNN: 0
  damage to plant, CHEAL: 0
  damage to plant, GALAP: 0
  damage to plant, HORVW: 0
  damage to plant, KCHSC: 0
  damage to plant, LOLPE: 0
  damage to plant, POAAN: 10
  damage to plant, POLCO: 0
  damage to plant, SINAR: 0
  damage to plant, STEME: 0
  damage to plant, VERPE: 0
Rate 250, 20 DAA
  damage to plant, ALOMY: 0
  damage to plant, AVEFA: 0
  damage to plant, BEAVA: 0
  damage to plant, BROTE: 0
  damage to plant, BRSNN: 0
  damage to plant, CHEAL: 10
  damage to plant, GALAP: 10
  damage to plant, HORVW: 10
  damage to plant, KCHSC: 0
  damage to plant, LOLPE: 20
  damage to plant, POAAN: 20
  damage to plant, POLCO: 0
  damage to plant, SINAR: 0
  damage to plant, STEME: 10
  damage to plant, VERPE: 10
Rate 500, 20 DAA
  damage to plant, ALOMY: 40
  damage to plant, AVEFA: 20
  damage to plant, BEAVA: 0
  damage to plant, BROTE: 0
  damage to plant, BRSNN: 0
  damage to plant, CHEAL: 20
  damage to plant, GALAP: 20
  damage to plant, HORVW: 20
  damage to plant, KCHSC: 10
  damage to plant, LOLPE: 30
  damage to plant, POAAN: 70
  damage to plant, POLCO: 0
  damage to plant, SINAR: 10
  damage to plant, STEME: 10
  damage to plant, VERPE: 20
